Experimental data published in PubChem BioAssay AID248 (DTP/NCI, 2004).
Toxic doses and inconclusive results are not listed. Cut-off read from the data, not from the text of the source: active = T/C of 150% or more; inactive = T/C below 125%.

Test system: L1210 leukemia ip in BDF1 mice, survival T/C
Assay: NCI In Vivo Anticancer Drug Screen. Data for tumor model L1210 Leukemia (intraperitoneal) in B6D2F1 (BDF1) mice
Conditions: endpoint: mean survival time, higher = longer survival
Outline: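 Survival endpoint. Drug-treated group vs vehicle group, expressed as T divided by C. Tumor passaged by transplantation.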

[1] = dose: 100.0 mg/kg/injection, schedule: Q01DX001 (ip), vehicle: carboxymethylcellulose (CMC)
[2] = dose: 100.0 mg/kg/injection, schedule: Q01DX009 (ip), vehicle: saline
[3] = dose: 200.0 mg/kg/injection, schedule: Q01DX001 (ip), vehicle: carboxymethylcellulose (CMC)
[4] = dose: 200.0 mg/kg/injection, schedule: Q01DX009 (ip), vehicle: saline
[5] = dose: 400.0 mg/kg/injection, schedule: Q01DX001 (ip), vehicle: carboxymethylcellulose (CMC)
[6] = dose: 25.0 mg/kg/injection, schedule: Q01DX009 (ip), vehicle: saline with Tween-80
[7] = dose: 100.0 mg/kg/injection, schedule: Q04DX003 (ip), vehicle: saline
[8] = dose: 200.0 mg/kg/injection, schedule: Q04DX003 (ip), vehicle: saline
[9] = dose: 400.0 mg/kg/injection, schedule: Q01DX009 (ip), vehicle: saline
[10] = dose: 400.0 mg/kg/injection, schedule: Q04DX003 (ip), vehicle: saline
[11] = dose: 100.0 mg/kg/injection, schedule: Q01DX009 (ip), vehicle: Klucel (hydroxypropylcellulose) (HPC)
[12] = dose: 200.0 mg/kg/injection, schedule: Q01DX009 (ip), vehicle: Klucel (hydroxypropylcellulose) (HPC)
[13] = dose: 400.0 mg/kg/injection, schedule: Q01DX009 (ip), vehicle: Klucel (hydroxypropylcellulose) (HPC)
[14] = dose: 100.0 mg/kg/injection, schedule: Q01DX001 (ip), vehicle: saline
[15] = dose: 200.0 mg/kg/injection, schedule: Q01DX001 (ip), vehicle: saline
[16] = dose: 400.0 mg/kg/injection, schedule: Q01DX001 (ip), vehicle: saline
[17] = dose: 75.0 mg/kg/injection, schedule: Q01DX001 (ip), vehicle: saline
[18] = dose: 150.0 mg/kg/injection, schedule: Q01DX001 (ip), vehicle: saline
[19] = dose: 100.0 mg/kg/injection, schedule: Q04DX003 (ip), vehicle: Klucel (hydroxypropylcellulose) (HPC)
[20] = dose: 200.0 mg/kg/injection, schedule: Q04DX003 (ip), vehicle: Klucel (hydroxypropylcellulose) (HPC)
[21] = dose: 400.0 mg/kg/injection, schedule: Q04DX003 (ip), vehicle: Klucel (hydroxypropylcellulose) (HPC)

Measured: T/C

Cn1c(C=O)cc2ccccc21
inactive: [1] 90 % of control | [2] 94 % of control | dose: 100.0 mg/kg/injection, schedule: Q04DX002 (ip), vehicle: saline 110 % of control | [3] 98 % of control | [4] 97 % of control | dose: 200.0 mg/kg/injection, schedule: Q04DX002 (ip), vehicle: saline 104 % of control | [5] 102 % of control | dose: 400.0 mg/kg/injection, schedule: Q04DX002 (ip), vehicle: saline 100 % of control

O=C(CBr)c1ccc(I)cc1
inactive: dose: 3.13 mg/kg/injection, schedule: Q01DX009 (ip), vehicle: saline with Tween-80 92 % of control | dose: 6.25 mg/kg/injection, schedule: Q01DX009 (ip), vehicle: saline with Tween-80 95 % of control | dose: 12.5 mg/kg/injection, schedule: Q01DX009 (ip), vehicle: saline with Tween-80 97 % of control | [6] 100 % of control | [1] 91 % of control | [3] 101 % of control

CC(=O)c1c(C)cc(C(C)(C)C)cc1C
inactive: [2] 97 % of control | [7] 105 % of control | [4] 100 % of control | [8] 92 % of control | [9] 108 % of control | [10] 100 % of control

CCC(=O)Nc1ccc(Cl)cc1OC
inactive: [11] 100 % of control | [12] 102 % of control | [13] 100 % of control

CC(=O)Oc1c(C(C)(C)C)cc(C)cc1C(C)(C)C
inactive: dose: 50.0 mg/kg/injection, schedule: Q01DX009 (ip), vehicle: Klucel (hydroxypropylcellulose) (HPC) 100 % of control | [11] 100 % of control | [12] 103 % of control

COC(=O)c1ccnc(C(=O)OC)c1
inactive: dose: 100.0 mg/kg/injection, schedule: Q01DX001 (ip), vehicle: saline sonified 98 % of control | [2] 95 % of control | dose: 200.0 mg/kg/injection, schedule: Q01DX001 (ip), vehicle: saline sonified 103 % of control | [4] 95 % of control | dose: 400.0 mg/kg/injection, schedule: Q01DX001 (ip), vehicle: saline sonified 98 % of control | [9] 93 % of control

O=Nn1cc(-c2cc3ccccc3n2N=O)c2ccccc21
inactive: dose: 50.0 mg/kg/injection, schedule: Q01DX001 (ip), vehicle: saline 102 % of control | [14] 93 % of control | [15] 96 % of control | [16] 96 % of control

O=C(O)c1cc([N+](=O)[O-])ccc1P(=O)(O)O
inactive: [17] 93 % of control | [18] 95 % of control

CC(C)(C)NCc1cc(C(C)(C)C)cc(-c2ccccc2)c1O
inactive: [14] 100 % of control | [7] 97 % of control | [15] 101 % of control | [8] 90 % of control | [16] 99 % of control

O=[N+]([O-])c1ncn(Cc2ccccc2)c1Br
inactive: [19] 91 % of control | [20] 94 % of control | [21] 89 % of control

C=COCCOC
inactive: dose: 100.0 mg/kg/injection, schedule: Q01DX009 (ip), vehicle: saline with Tween-80 104 % of control | dose: 200.0 mg/kg/injection, schedule: Q01DX009 (ip), vehicle: saline with Tween-80 101 % of control | dose: 400.0 mg/kg/injection, schedule: Q01DX009 (ip), vehicle: saline with Tween-80 107 % of control

CCCCCCCCCCCCCCCCCCNC1=C(Cl)C(=O)C(NCCCCCCCCCCCCCCCCCC)=C(Cl)C1=O
inactive: dose: 50.0 mg/kg/injection, schedule: Q01DX001 (ip), vehicle: carboxymethylcellulose (CMC) 100 % of control

CCCCCCCCCCCCCCCc1ccc(C(=O)C[n+]2ccccc2)cc1
inactive: dose: 16.5 mg/kg/injection, schedule: Q01DX009 (ip), vehicle: saline with Tween-80 114 % of control | [6] 120 % of control

CSc1ccc(NC(=O)Nc2cccc(C)c2C)cc1
inactive: [11] 92 % of control | [12] 95 % of control | [13] 103 % of control

C/C=C/C1OCC(CC)([N+](=O)[O-])CO1 (configuration not stated)
inactive: dose: 100.0 mg/kg/injection, schedule: Q04DX003 (ip), vehicle: saline with Tween-80 101 % of control | dose: 200.0 mg/kg/injection, schedule: Q04DX003 (ip), vehicle: saline with Tween-80 96 % of control | dose: 400.0 mg/kg/injection, schedule: Q04DX003 (ip), vehicle: saline with Tween-80 98 % of control

C[Si](C)(C)Cc1cccc(F)c1
inactive: dose: 25.6 mg/kg/injection, schedule: Q04DX002 (ip), vehicle: saline with Tween-80 93 % of control | dose: 64.0 mg/kg/injection, schedule: Q04DX002 (ip), vehicle: saline with Tween-80 90 % of control | dose: 160.0 mg/kg/injection, schedule: Q04DX002 (ip), vehicle: saline with Tween-80 87 % of control | dose: 400.0 mg/kg/injection, schedule: Q04DX002 (ip), vehicle: saline with Tween-80 97 % of control

CSCCC(N)C(=O)O (configuration not stated)
inactive: dose: 40.0 mg/kg/injection, schedule: Q01DX009 (ip), vehicle: saline 96 % of control | dose: 80.0 mg/kg/injection, schedule: Q01DX009 (ip), vehicle: saline 107 % of control | [1] 92 % of control | [19] 104 % of control | dose: 160.0 mg/kg/injection, schedule: Q01DX009 (ip), vehicle: saline 102 % of control | [3] 95 % of control | [20] 98 % of control | dose: 320.0 mg/kg/injection, schedule: Q01DX009 (ip), vehicle: saline 98 % of control | [5] 103 % of control | [21] 102 % of control

Cc1sc2ccccc2[n+]1CCC(=O)O
inactive: dose: 100.0 mg/kg/injection, schedule: Q01DX009 (ip), vehicle: gum acacia 94 % of control | dose: 100.0 mg/kg/injection, schedule: Q04DX003 (ip), vehicle: gum acacia 95 % of control | dose: 200.0 mg/kg/injection, schedule: Q01DX009 (ip), vehicle: gum acacia 101 % of control | dose: 200.0 mg/kg/injection, schedule: Q04DX003 (ip), vehicle: gum acacia 96 % of control | dose: 400.0 mg/kg/injection, schedule: Q01DX009 (ip), vehicle: gum acacia 100 % of control | dose: 400.0 mg/kg/injection, schedule: Q04DX003 (ip), vehicle: gum acacia 95 % of control

CC12CCC3c4ccc(OC(=O)c5ccc(N)cc5)cc4CCC3C1CCC2=O (configuration not stated)
inactive: dose: 12.5 mg/kg/injection, schedule: Q04DX002 (ip), vehicle: saline with Tween-80 110 % of control | dose: 25.0 mg/kg/injection, schedule: Q04DX002 (ip), vehicle: saline with Tween-80 106 % of control | dose: 50.0 mg/kg/injection, schedule: Q04DX002 (ip), vehicle: saline with Tween-80 95 % of control | dose: 100.0 mg/kg/injection, schedule: Q01DX001 (sc), vehicle: steriod suspending solution 95 % of control | dose: 200.0 mg/kg/injection, schedule: Q01DX001 (sc), vehicle: steriod suspending solution 97 % of control | dose: 400.0 mg/kg/injection, schedule: Q01DX001 (sc), vehicle: steriod suspending solution 95 % of control

CC1(C#N)CCC2c3ccccc3CCC2C1=O (configuration not stated)
inactive: [2] 95 % of control | [7] 100 % of control | [4] 96 % of control | [8] 98 % of control | [9] 106 % of control | [10] 97 % of control

N#Cc1cc[n+](Cc2ccccc2)cc1
inactive: [17] 101 % of control | [18] 102 % of control
